Measurements taken from ChEMBL document CHEMBL1123729, “Synthesis and biological activity of partially modified retro-inverso pseudopeptide derivatives of the C-terminal tetrapeptide of gastrin” (J Med Chem, 1987).
Calls of active or inactive are those of the source. The calls are words filed in the database; no cut-off is given here. Peptide text beside a SMILES is read from it. * marks the point of attachment. Boc = CC(C)(C)OC(=O)*

Assays:
Rattus norvegicus [1] = assay: Agonistic activity against gastrin induced acid secretion in the anesthetized rats at a dose of 3 mg/kg; **** indicate full activity of tetragastrin; type: functional, organism-based; set-up: dose 3 mg/kg; conditions: filed as agonist
Rattus norvegicus [2] = assay: Agonistic activity against gastrin induced acid secretion in the anesthetized rats; No agonist activity at doses as high as 3 mg/kg; type: functional, organism-based; set-up: dose 3 mg/kg
Rattus norvegicus [3] = assay: Effective dose required to inhibit gastrin-induced acid secretion in the in situ perfused rat stomach (anesthetized rat); type: functional
Rattus norvegicus [4] = assay: Agonistic activity against gastrin induced acid secretion in the anesthetized rats at a dose of 3 mg/kg;*=1/4 of the agonistic activity; type: functional, organism-based; set-up: dose 3 mg/kg; conditions: filed as partial agonist

Structure (SMILES)	Agonist activity (Rattus norvegicus [1])	Agonist activity (Rattus norvegicus [2])	ED50 (Rattus norvegicus [3])	Agonist activity (Rattus norvegicus [4])
CC(C)C[C@H](NC(=O)[C@H](Cc1c[nH]c2ccccc12)NC(=O)OC(C)(C)C)C(=O)N[C@@H](CC(=O)O)C(=O)N[C@@H](Cc1ccccc1)C(N)=O (Boc-WLDF-NH2)	Agonist			
CC(C)C[C@H](NC(=O)[C@H](Cc1c[nH]c2ccccc12)NC(=O)OC(C)(C)C)C(=O)N[C@H](CC(=O)O)NC(=O)NCc1ccccc1		inactive	0.9 µmol/kg	
CCCN(CCC)C(=O)C(CCC(=O)O)NC(=O)c1ccccc1 (configuration not stated) [PROGLUMIDE]		inactive	350 µmol/kg	
CCCCOC(=O)CCNC(=O)[C@H](Cc1c[nH]c2ccccc12)NC(=O)[C@@H](CCCC)NC(=O)[C@H](CC(=O)O)NC(=O)CCc1ccccc1			10.4 µmol/kg	
CCCC[C@@H](NC(=O)[C@H](CC(=O)O)NC(=O)NCc1ccccc1)NC(=O)[C@@H](Cc1c[nH]c2ccccc12)NC(=O)OC(C)(C)C			1.1 µmol/kg	Partial agonist
CC(C)C[C@@H](NC(=O)[C@H](CC(=O)O)NC(=O)C(Cc1ccccc1)C(N)=O)NC(=O)[C@@H](Cc1c[nH]c2ccccc12)NC(=O)OC(C)(C)C (some centres not stated)			0.15 µmol/kg	Partial agonist
CCCCOC(=O)CCNC(=O)[C@H](Cc1c[nH]c2ccccc12)NC(=O)[C@@H](CCCC)NC(=O)[C@H](CC(=O)O)NC(=O)NCc1ccccc1		inactive		
CC(C)C[C@H](NC(=O)[C@@H](Cc1c[nH]c2ccccc12)NC(=O)OC(C)(C)C)C(=O)N[C@H](CC(=O)O)NC(=O)C(Cc1ccccc1)C(N)=O (some centres not stated)			0.3 µmol/kg	Partial agonist
CCCC[C@@H](NC(=O)[C@H](CC(=O)O)NC(=O)CCc1ccccc1)NC(=O)[C@@H](Cc1c[nH]c2ccccc12)NC(=O)OC(C)(C)C			2.5 µmol/kg	Partial agonist
CC(C)C[C@H](NC(=O)[C@@H](Cc1c[nH]c2ccccc12)NC(=O)OC(C)(C)C)C(=O)N[C@H](CC(=O)O)NC(=O)CCc1ccccc1		inactive	0.15 µmol/kg	
